Laboratory results reported in patent US20260209260A1, “VECTORIZED NHC IRIDIUM(III) COMPLEXES AND USE THEREOF IN PHOTODYNAMIC THERAPY AND/OR DIAGNOSTIC” (CENTRE NATIONAL DE LA RECHERCHE SCIENTIFIQUE, priority 2022, published 2026).
Several values for one entry are separate records, joined by “and”; a condition that tells them apart may be missing. Equal values may be shown once. Read-outs that look alike come from different tables or passages of the source.

Key:
[1] = test system: NIH-3T3 fibroblast cells (non-tumor); experiment: Cell viability assay (MTT), dark and blue light; assay type: cell-based, Murine; conditions: for Photosensitizing index (PI) NIH-3T3: dark vs blue light 458 nm
Outline: (§1)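 Cells seeded at 5,000–10,000/well, attached overnight, then exposed to complexes in DMSO (final 0.1% v/v) for 72 h in the dark, or for 8 h dark followed by 10 min irradiation and dark incubation to 72 h. MTT added 3–4 h at 37 °C; formazan dissolved in DMSO, read at 570 nm.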

[2] = test system: MC3T3 osteoblast cells (non-tumor); experiment: Cell viability assay (MTT), dark and blue light; assay type: cell-based, Murine; conditions: for Photosensitizing index (PI) MC3T3: dark vs blue light 458 nm
Outline: as §1

[3] = Lipophilicity: octanol-water partition coefficient, shake-flask method
Outline: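 Octanol and water mutually pre-saturated for 24 h; compound ([…] stock in aqueous phase) partitioned against equal volume n-octanol, mixed 15 min, phases separated by centrifugation.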

[4] = Luminescence emission spectra and quantum yield; assay type: physicochemical; conditions: room temperature; reference POPOP in hexane or rhodamine B in ethanol
Outline: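 Spectrofluorometric fluorescence/phosphorescence emission spectra of the iridium(III) complexes recorded in CH2Cl2 at room temperature. Quantum yields by the Demas–Crosby relative method on solutions at RT, from integrated emission band areas versus a reference standard of known yield, corrected for solvent refractive index.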

[5] = test system: ASPC-1 pancreas cancer cells; experiment: Cell viability assay (MTT), dark and blue light; assay type: cell-based, Human; conditions: for SI (vs MC3T3) ASPC-1 Blue / SI (vs NIH-3T3) ASPC-1 Blue: blue light 458 nm; for Photosensitizing index (PI) ASPC-1: dark vs blue light 458 nm
Procedure: (§2) Cells were grown in humidified incubators at 37° C. in 5% CO2. Murine MC3T3 osteoblast and NIH-3T3 fibroblast cells-used as non-tumor cell models-were cultured in a-MEM medium and DMEM medium supplemented with 10% fetal bovine serum (FBS) and 1% Penicillin/Streptomycin (P/S) antibiotics, respectively. Human T24 bladder, MGHU3 bladder, Scaber bladder, A549 lung, MCF7 breast, MiaPaCa2 pancreas cancer cells were cultured in DMEM medium supplemented with 10% FBS and 1% P/S antibiotics. […] Human Hela cervix and HepG2 liver cancer cells were cultured EMEM medium supplemented with 10% FBS and 1% P/S antibiotics.
(§3) MTT reagent (3-(4,5-dimethylthiazol-2-yl)-2,5-diphenyltetrazolium bromide) was used to determine cell death as originally described by Mosmann. Briefly, cells were seeded from 5,000 to 10,000 cells/well in 24-well plates (1 mL) depending on the cell type and allowed to attach overnight. The complexes were prepared in DMSO. The concentration of the complexes was calculated based on the elemental composition of the complexes determined by the elemental analyses. All cell viability experiments were carried out with a fixed concentration of 0.1% (v/v) DMSO. After 72 h of treatment, cells were incubated at 37° C. and 5% CO2 with 25 μL of MTT solution (5 mg/ml; Sigma-Aldrich) in 24-well plates for 3 to 4 h. After solubilization with 500 μL of DMSO, formazan was quantified spectrophotometrically with a microplate reader at 570 nm absorbance (ClarioSTAR, BMG LabTech). […] All the results were calculated from data obtained in at least three independent experiments performed in triplicate.
(§4) Two sets of experiments were conducted in parallel for each complex to be studied:
(§5) 1. The cells were incubated with the different complexes (in the dark) for 72 h.
(§6) 2. The cells were incubated for 8 h with the different complexes (in the dark), then irradiated for 10 min, followed by an incubation in the dark up to 72 h.

[6] = test system: MiaPaCa2 pancreas cancer cells; experiment: Cell viability assay (MTT), dark and blue light; assay type: cell-based, Human; conditions: for SI (vs MC3T3) MiaPaCa2 Blue / SI (vs NIH-3T3) MiaPaCa2 Blue: blue light 458 nm; for Photosensitizing index (PI) MiaPaCa2: dark vs blue light 458 nm
Procedure: as §2, §3, §4, §5, §6

[7] = test system: T24 bladder cancer cells; experiment: Cell viability assay (MTT), dark and blue light; assay type: cell-based, Human; conditions: for SI (vs MC3T3) T24 Blue / SI (vs NIH-3T3) T24 Blue: blue light 458 nm; for Photosensitizing index (PI) T24: dark vs blue light 458 nm
Procedure: as §2, §3, §4, §5, §6

[8] = test system: A549 lung cancer cells; experiment: Cell viability assay (MTT), dark and blue light; assay type: cell-based, Human; conditions: for SI (vs MC3T3) A549 Blue / SI (vs NIH-3T3) A549 Blue: blue light 458 nm; for Photosensitizing index (PI) A549: dark vs blue light 458 nm
Procedure: as §2, §3, §4, §5, §6

[9] = Emission lifetime measurement; assay type: physicochemical
Outline: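 Emission lifetimes measured by time-correlated single-photon counting (0.5 ns time resolution), excitation from a D2 lamp and a 405 nm pulsed diode laser. Estimated error 5% on lifetime.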

[10] = test system: cancer cells (all tumor cell lines tested); experiment: Cell viability assay (MTT), summary over the cancer cell lines tested; assay type: cell-based, Human
Procedure: as §2, §3, §4, §5, §6

[11] = UV/Vis absorption spectra; assay type: physicochemical; conditions: room temperature, air-saturated CH2Cl2 or CH2Cl2/MeOH (1:1), 50 μM; ε in brackets, sh = shoulder
Procedure: UV/Vis absorption spectra were recorded at RT on solutions contained in quartz cuvettes (optical pathlength 1 cm, Hellma®) with a PerkinElmer® UV/VIS/NIR spectrophotometer Lambda 950 and a PerkinElmer® detector UV/VIS/NIR Accessory 2D Detector Module.

[12] = POPOP in hexane, rhodamine B in ethanol; cited from earlier work
[13] = 8 h in the dark, blue light 458 nm 10 min, then dark up to 72 h, read-out: GI50 NIH-3T3 Blue
[14] = in the dark, 72 h, read-out: GI50 NIH-3T3 Dark
[15] = 8 h in the dark, blue light 458 nm 10 min, then dark up to 72 h, read-out: GI50 MC3T3 Blue
[16] = in the dark, 72 h, read-out: GI50 MC3T3 Dark
[17] = 8 h in the dark, blue light 458 nm 10 min, then dark up to 72 h, read-out: GI50 ASPC-1 Blue
[18] = in the dark, 72 h, read-out: GI50 ASPC-1 Dark
[19] = 8 h in the dark, blue light 458 nm 10 min, then dark up to 72 h, read-out: GI50 MiaPaCa2 Blue
[20] = in the dark, 72 h, read-out: GI50 MiaPaCa2 Dark
[21] = 8 h in the dark, blue light 458 nm 10 min, then dark up to 72 h, read-out: GI50 T24 Blue
[22] = in the dark, 72 h, read-out: GI50 T24 Dark
[23] = 8 h in the dark, blue light 458 nm 10 min, then dark up to 72 h, read-out: GI50 A549 Blue
[24] = in the dark, 72 h, read-out: GI50 A549 Dark

Row | Compound | GI50 [1, 13] [nM] | Photosensitizing index (PI) NIH-3T3 [1] | GI50 [1, 14] [nM] | GI50 [2, 15] [nM] | Photosensitizing index (PI) MC3T3 [2] | GI50 [2, 16] [nM] | GI50 [5, 17] [nM] | SI (vs MC3T3) ASPC-1 Blue [5] | SI (vs NIH-3T3) ASPC-1 Blue [5] | SI (vs MC3T3) ASPC-1 Dark [5] | SI (vs NIH-3T3) ASPC-1 Dark [5] | Photosensitizing index (PI) ASPC-1 [5] | GI50 [5, 18] [nM] | GI50 [6, 19] [nM] | SI (vs MC3T3) MiaPaCa2 Blue [6] | SI (vs NIH-3T3) MiaPaCa2 Blue [6] | SI (vs MC3T3) MiaPaCa2 Dark [6] | SI (vs NIH-3T3) MiaPaCa2 Dark [6] | Photosensitizing index (PI) MiaPaCa2 [6] | GI50 [6, 20] [nM] | also measured
1 | COC(=O)c1ccc2[n+](c1)[Ir-3]13([c]4ccccc4-2)([c]2ccccc2-c2ccc(C(=O)OC)c[n+]21)[c]1n(CCCNC(=O)c2ccccc2SC/C=C(\C)CC/C=C(\C)CCC=C(C)C)cc[n+]1-c1cccc[n+]13.F[P-](F)(F)(F)(F)F [II-e] | 5200 | 2.3 | 12000 | 10100 | 1.1 | 11000 | 1300 | 7.9 | 4.1 | 2.2 | 2.3 | 4.0 | 5100 | 180 | 57.7 | 29.7 | 5.6 | 6.1 | 11.2 | 2000 | Log P ([3]; n-octanol/water, shake-flask, mean of at least three determinations): 1.30 ± 0.02; ΦP emission phosphorescence quantum yield [4]: 4.6%; GI50 [7, 21]: 260 nM; SI (vs MC3T3) T24 Blue [7]: 38.8; SI (vs NIH-3T3) T24 Blue [7]: 20.0; SI (vs MC3T3) T24 Dark [7]: 5.0; SI (vs NIH-3T3) T24 Dark [7]: 5.5; Photosensitizing index (PI) T24 [7]: 8.6; GI50 [7, 22]: 2200 nM; GI50 [8, 23]: 690 nM; SI (vs MC3T3) A549 Blue [8]: 14.6; SI (vs NIH-3T3) A549 Blue [8]: 7.5; SI (vs MC3T3) A549 Dark [8]: 2.9; SI (vs NIH-3T3) A549 Dark [8]: 3.2; Photosensitizing index (PI) A549 [8]: 5.5; GI50 [8, 24]: 3800 nM; τ1 emission lifetime [9]: 182 ns; SI values, mean over cancer cells, dark [10]: 4.1 fold; SI values, median over cancer cells, dark [10]: 4.1 fold; λmax (nm) ε (M^−1 · cm^−1) [11]: 310 (sh) (24540), 363 (sh) (5975), 432 (5280) nm (M^−1 · cm^−1)
2 | CCN(CC)c1ccc2c(-c3ccccc3C(=O)O)c3ccc(=[N+](CC)CC)cc-3oc2c1.[Cl-] [rhodamine B] | – | – | – | – | – | – | – | – | – | – | – | – | – | – | – | – | – | – | – | – | quantum yield of the reference standard [12]: 65%
3 | CC(C)=CCC/C(C)=C/CC/C(C)=C/CSc1ccccc1C(=O)NCCCn1cc[n+]2[c]1[Ir-3]13([c]4ccccc4-c4ccc5ccccc5[n+]41)([c]1ccccc1-c1ccc4ccccc4[n+]13)[n+]1ccccc1-2.F[P-](F)(F)(F)(F)F [II-g] | 5100 | 0.8 | 4300 | 5900 | 1.0 | 5800 | 470 | 12.6 | 10.9 | 7.8 | 5.8 | 1.6 | 740 | 250 | 24.0 | 20.7 | 14.4 | 10.7 | 1.6 | 400 | Log P [3]: 1.95 ± 0.05; GI50 [7, 21]: 640 nM and 650 nM; SI (vs MC3T3) T24 Blue [7]: 9.2; SI (vs NIH-3T3) T24 Blue [7]: 8.0; SI (vs MC3T3) T24 Dark [7]: 12.3; SI (vs NIH-3T3) T24 Dark [7]: 9.1; Photosensitizing index (PI) T24 [7]: 0.7; GI50 [7, 22]: 470 nM; GI50 [8, 23]: 390 nM; SI (vs MC3T3) A549 Blue [8]: 15.2; SI (vs NIH-3T3) A549 Blue [8]: 13.2; SI (vs MC3T3) A549 Dark [8]: 12.9; SI (vs NIH-3T3) A549 Dark [8]: 9.6; Photosensitizing index (PI) A549 [8]: 1.2; GI50 [8, 24]: 450 nM; selectivity for cancer cells over non-tumor cells, in words [10]: highest selectivity toward cancer cells compared to non-tumor cells; SI values, mean over cancer cells, dark [10]: 10.2 fold; SI values, median over cancer cells, dark [10]: 10.3 fold; λmax (nm) ε (M^−1 · cm^−1) [11]: 333 (20560), 438 (4735) nm (M^−1 · cm^−1)
